19 compounds from patent US20140073801A1, “PYRROLIDINE DERIVATIVES AS SELECTIVE GLYCOSIDASE INHIBITORS AND USES THEREOF” (Summit Corporation Plc, priority 2011, published 2014) can be followed below.

Type in all cases: biochemical
The test system of test [1] is human β-hexosaminidase [human placenta] (HexA/B). The experiment in a line: Determination of IC50 values for inhibition of human β-hexosaminidase. Particulars: ratio. On the procedure: (§1) Inhibitors identified from the screen described in Example 1 were evaluated for IC50 against human β-hexosaminidase [human placenta, Sigma-Aldrich] using a range of inhibitor concentrations from 300 μM to 0.003 μM or 100 μM to 0.001 μM and the following reaction conditions:
(§2) Reactions were carried out at room temperature for thirty minutes and then quenched through the addition of 150 μl 0.5M Na2CO3. Fluorescence readings were taken at excitation wavelength 360 nm and emission wavelength 450 nm. IC50 values were calculated using XLFit 4. The selectivity ratio for inhibition of human O-GlcNAcase over human β-hexosaminidase is defined here as:
(§3) IC50(human β-hexosaminidase)/IC50(Human OGA)

Test [2] concerns the target T1, human β-hexosaminidase [human placenta] (HexA/B).
T1 construct: other: human β-hexosaminidase, human placenta; room temperature, thirty minutes
Described as above. Particulars: human β-hexosaminidase, human placenta; room temperature, thirty minutes. On the procedure:
as §1, §2, §3

For another test, the target named is T2, human OGA (Homo sapiens, UniProt O60502).
T2 construct: made in house
T2 sequence (O60502 1-916): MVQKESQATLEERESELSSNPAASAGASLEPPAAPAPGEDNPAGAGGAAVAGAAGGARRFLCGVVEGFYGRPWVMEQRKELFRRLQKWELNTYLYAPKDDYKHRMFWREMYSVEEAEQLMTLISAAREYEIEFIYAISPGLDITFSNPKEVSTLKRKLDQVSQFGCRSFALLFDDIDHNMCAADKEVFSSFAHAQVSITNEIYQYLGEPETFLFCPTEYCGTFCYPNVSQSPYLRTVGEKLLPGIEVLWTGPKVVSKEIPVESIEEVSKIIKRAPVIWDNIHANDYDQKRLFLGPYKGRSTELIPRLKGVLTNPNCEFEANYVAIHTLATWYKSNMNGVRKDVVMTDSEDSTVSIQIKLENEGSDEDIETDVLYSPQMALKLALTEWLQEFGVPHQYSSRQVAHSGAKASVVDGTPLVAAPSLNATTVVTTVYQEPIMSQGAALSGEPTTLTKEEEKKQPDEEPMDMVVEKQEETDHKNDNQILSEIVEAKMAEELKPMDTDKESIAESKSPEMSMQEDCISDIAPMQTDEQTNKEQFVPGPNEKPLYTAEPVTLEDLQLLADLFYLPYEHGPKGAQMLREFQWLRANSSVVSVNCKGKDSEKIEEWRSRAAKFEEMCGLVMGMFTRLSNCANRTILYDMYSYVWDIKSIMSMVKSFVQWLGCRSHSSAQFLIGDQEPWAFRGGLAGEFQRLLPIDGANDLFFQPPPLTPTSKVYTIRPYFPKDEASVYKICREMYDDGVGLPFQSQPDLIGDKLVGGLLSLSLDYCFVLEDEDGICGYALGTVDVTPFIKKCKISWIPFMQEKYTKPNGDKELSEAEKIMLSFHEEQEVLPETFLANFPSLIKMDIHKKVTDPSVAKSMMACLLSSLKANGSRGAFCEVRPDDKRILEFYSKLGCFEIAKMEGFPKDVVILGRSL
The experiment in a line: Determination of IC50 values for inhibition of human OGA. As to the method: Inhibitors identified from the screen described in Example 1 were evaluated for IC50 using a procedure adapted from Biochem. J. 2009, 420, 221-227. IC50 determination was carried out using a range of inhibitor concentrations from 300 μM to 0.003 μM or 100 μM to 0.001 μM. IC50 values were calculated using XLFit 4.

On to `CNC(=O)C[C@@H]1[C@H](O)[C@H](O)[C@@H](CO)N1CCCNS(=O)(=O)c1ccc(-c2ccccc2)cc1` [Compound A072, 2-((2R,3S,4R,5R)-1-(3-([1,1′-biphenyl]-4-ylsulfonamido)propyl)-3,4-dihydroxy-5-(hydroxymethyl)pyrrolidin-2-yl)-N-methylacetamide], for which the “Selectivity: IC50(human β-hexosaminidase)/IC50(Human OGA)” value in test [1] was >150000. Also, the IC50 (as a rule, the concentration needed to halve the response being measured) was > 300 µM in test [2] and 0.002 µM on human OGA.

On to `CCCCCCN1[C@H](CO)[C@@H](O)[C@@H](O)[C@@H]1CC(=O)NC` [Compound A034, 2-((2S,3S,4R,5R)-1-hexyl-3,4-dihydroxy-5-(hydroxymethyl)pyrrolidin-2-yl)-N-methylacetamide], for which the “Selectivity: IC50(human β-hexosaminidase)/IC50(Human OGA)” value in test [1] is >4.41. In addition, the 50% inhibitory concentration (IC50) in test [2] is > 300 µM; against human OGA, 68 µM.

For the compound `CCCNC(=O)C[C@@H]1[C@H](O)[C@H](O)[C@@H](CO)N1CCCCCCCCCO` [Compound A005, 2-((2R,3S,4R,5R)-3,4-dihydroxy-5-(hydroxymethyl)-1-(9-hydroxynonyl)pyrrolidin-2-yl)-N-propylacetamide], the “Selectivity: IC50(human β-hexosaminidase)/IC50(Human OGA)” value in test [1] was >2142. The IC50 was > 300 µM in test [2] and 0.144 µM against human OGA.

With `CNC(=O)[C@H]1NC[C@@H](O)[C@@H]1O` [Compound A043, (2S,3R,4R)-3,4-dihydroxy-N-methylpyrrolidine-2-carboxamide], the “Selectivity: IC50(human β-hexosaminidase)/IC50(Human OGA)” value in test [1] was found to be 1.37. In addition, the IC50 in test [2] is 14 µM; at human OGA, 10.2 µM.

In the case of `CCCCCCN1[C@H](CC(=O)NC)[C@H](O)[C@@H](O)[C@@H]1CO` [Compound A032, 2-((2R,3S,4S,5S)-1-hexyl-3,4-dihydroxy-5-(hydroxymethyl)pyrrolidin-2-yl)-N-methylacetamide], the “Selectivity: IC50(human β-hexosaminidase)/IC50(Human OGA)” value in test [1] was >49.4. Besides, the IC50 is > 300 µM in test [2] and 6.07 µM at human OGA.

Turning to `CC(C)CNC(=O)C[C@H]1N[C@H](CO)[C@@H](O)[C@H]1O` [Compound A025, 2-((2R,3S,4R,5R)-3,4-dihydroxy-5-(hydroxymethyl)pyrrolidin-2-yl)-N-isobutylacetamide], the “Selectivity: IC50(human β-hexosaminidase)/IC50(Human OGA)” value in test [1] is listed as >2.3. For the same compound, the IC50 in test [2] is > 300 µM; against human OGA it was 129 µM.

On to `CNC(=O)[C@H]1N[C@@H](CO)[C@@H](O)[C@@H]1O` [Compound A042, (2S,3R,4R,5S)-3,4-dihydroxy-5-(hydroxymethyl)-N-methylpyrrolidine-2-carboxamide], for which the “Selectivity: IC50(human β-hexosaminidase)/IC50(Human OGA)” value in test [1] is 0.89. The IC50 in test [2] was 2.5 µM; against human OGA, 2.8 µM.

`CNC(=O)C[C@@H]1[C@H](O)[C@H](O)[C@@H](CO)N1CCC1CCCCC1` [Compound A041, 2-((2R,3S,4R,5R)-1-(2-cyclohexylethyl)-3,4-dihydroxy-5-(hydroxymethyl)pyrrolidin-2-yl)-N-methylacetamide]: the “Selectivity: IC50(human β-hexosaminidase)/IC50(Human OGA)” value in test [1] is listed as 8142. The IC50 in test [2] is 114 µM; at human OGA, 0.014 µM.

On to `CNC(=O)C[C@@H]1[C@H](O)[C@H](O)[C@@H](CO)N1CCCCCNS(=O)(=O)c1ccc(Oc2ccccc2)cc1` [Compound A067, 2-((2R,3S,4R,5R)-3,4-dihydroxy-5-(hydroxymethyl)-1-(5-(4-phenoxyphenylsulfonamido)pentyl)pyrrolidin-2-yl)-N-methylacetamide], for which, in test [1], the “Selectivity: IC50(human β-hexosaminidase)/IC50(Human OGA)” value is reported as >5000. The IC50 in test [2] is 15 µM; against human OGA it was < 0.003 µM.

For the compound `C=CCNC(=O)C[C@@H]1[C@H](O)[C@H](O)[C@@H](CO)N1CCCCCC` [Compound A039, N-allyl-2-((2R,3S,4R,5R)-1-hexyl-3,4-dihydroxy-5-(hydroxymethyl)pyrrolidin-2-yl)acetamide], the “Selectivity: IC50(human β-hexosaminidase)/IC50(Human OGA)” value in test [1] was >188.68. For the same compound, the results for the IC50 (in test [2]; against human OGA) were > 300 µM and 1.59 µM, respectively.

On to `CCCCN1[C@H](CC(=O)NC)[C@H](O)[C@H](O)[C@H]1CO` [Compound A017, 2-((2R,3S,4R,5R)-1-butyl-3,4-dihydroxy-5-(hydroxymethyl)pyrrolidin-2-yl)-N-methylacetamide], for which the “Selectivity: IC50(human β-hexosaminidase)/IC50(Human OGA)” value in test [1] is reported as 3500. For the same compound, the results for the IC50 (in test [2]; against human OGA) were 196 µM and 0.056 µM, respectively.

Regarding `CNC(=O)[C@H]1N[C@H](CO)[C@@H](O)[C@@H]1O` [Compound A059, (2S,3R,4R,5R)-3,4-dihydroxy-5-(hydroxymethyl)-N-methylpyrrolidine-2-carboxamide], the “Selectivity: IC50(human β-hexosaminidase)/IC50(Human OGA)” value in test [1] is recorded as 4.27. Further, the values for the IC50 (in test [2]; against human OGA) were 0.0299 µM and 0.007 µM, respectively.

In the case of `O=C(C[C@H]1N[C@H](CO)[C@@H](O)[C@H]1O)NC1CC1` [Compound A048, N-cyclopropyl-2-((2R,3S,4R,5R)-3,4-dihydroxy-5-(hydroxymethyl)pyrrolidin-2-yl)acetamide], the “Selectivity: IC50(human β-hexosaminidase)/IC50(Human OGA)” value in test [1] is given as >12.6. Moreover, the IC50 in test [2] was > 300 µM; on human OGA, 23.8 µM.

Take `CCNC(=O)C[C@@H]1[C@@H](O)[C@H](O)[C@@H](CO)N1CCCc1ccc(S(=O)(=O)NCC)cc1` [Compound A070, N-ethyl-2-((2R,3R,4R,5R)-1-(3-(4-(N-ethylsulfamoyl)phenyl)propyl)-3,4-dihydroxy-5-(hydroxymethyl)pyrrolidin-2-yl)acetamide]: the “Selectivity: IC50(human β-hexosaminidase)/IC50(Human OGA)” value in test [1] came out at 22133. Moreover, the IC50 in test [2] is 166 µM; against human OGA, 0.0075 µM.

As to `CNC(=O)C[C@@H]1[C@@H](O)[C@H](O)[C@H](CO)N1CCCc1ccccc1` [Compound A058, 2-((2R,3R,4R,5S)-3,4-dihydroxy-5-(hydroxymethyl)-1-(3-phenylpropyl)pyrrolidin-2-yl)-N-methylacetamide], in test [1], the “Selectivity: IC50(human β-hexosaminidase)/IC50(Human OGA)” value came to 0.14. The IC50 in test [2] is 0.031 µM; on human OGA, 0.228 µM.

Consider `CCNC(=O)C[C@@H]1[C@@H](O)[C@H](O)[C@@H](CO)N1CCOc1ccc(Cl)cc1Cl` [Compound A062, 2-((2R,3R,4R,5R)-1-(2-(2,4-dichlorophenoxy)ethyl)-3,4-dihydroxy-5-(hydroxymethyl)pyrrolidin-2-yl)-N-ethylacetamide], for which the “Selectivity: IC50(human β-hexosaminidase)/IC50(Human OGA)” value in test [1] is >585. Also, the IC50 is > 300 µM in test [2] and 0.512 µM against human OGA.

Turning to `CCCCCCN1[C@H](CC(=O)NC)[C@@H](O)[C@H](O)[C@@H]1CO` [Compound A056, 2-((2R,3R,4R,5S)-1-hexyl-3,4-dihydroxy-5-(hydroxymethyl)pyrrolidin-2-yl)-N-methylacetamide], the “Selectivity: IC50(human β-hexosaminidase)/IC50(Human OGA)” value in test [1] was found to be 0.02. The figures for the IC50 (in test [2]; at human OGA) were 0.0107 µM and 0.58 µM, respectively.

In the case of `O=C(C[C@@H]1[C@H](O)[C@H](O)[C@@H](CO)N1CCCc1ccccc1)NCCO` [Compound A029, 2-((2R,3S,4R,5R)-3,4-dihydroxy-5-(hydroxymethyl)-1-(3-phenylpropyl)pyrrolidin-2-yl)-N-(2-hydroxyethyl)acetamide], the “Selectivity: IC50(human β-hexosaminidase)/IC50(Human OGA)” value in test [1] is on record as >2.38. The IC50 in test [2] is > 300 µM; on human OGA, 125 µM.

Regarding `CC(C)NC(=O)C[C@H]1N[C@H](CO)[C@@H](O)[C@H]1O` [Compound A013, 2-((2R,3S,4R,5R)-3,4-dihydroxy-5-(hydroxymethyl)pyrrolidin-2-yl)-N-isopropylacetamide], the “Selectivity: IC50(human β-hexosaminidase)/IC50(Human OGA)” value in test [1] is on record as >2. Besides, the IC50 in test [2] is > 300 µM; against human OGA, 130 µM.
